Measurements reported in US7883846B2, “Heterologous stimulus-gated ion channels and methods of using same” (priority 2002, dated 2011).

What was measured:
[1] = test system: hippocampal neurons lacking the cognate exogenous receptor; assay: Stimulation of hippocampal neurons lacking the cognate exogenous receptor / untransfected neurons; assay type: cell-based, rat; conditions: 50 nM capsaicin, 100 μM menthol, 50 μM ATP; off-diagonal receptor-agonist combinations
rat P2X2 = assay: Pharmacological stimulation of transfected hippocampal neurons, whole-cell patch clamp (P2X2); assay type: cell-based; conditions: 50 μM ATP, 1-ml bolus, whole-cell current clamp, 50 μM AP-5 plus 10 μM CNQX
Protocol: (§1) Three plasmid species were prepared, each species containing a stimulus-gated ion channel (rat TRPV1, rat TRPM8 or rat P2X2) under the control of the CMV promoter in pCI-fluor, a derivative of the mammalian expression vector pCI-neo (Promega). To create pCI-fluor, the aminoglycoside phosphotransferase coding sequence of pCI-neo was replaced with that of EGFP bearing a 20-amino acid N-terminal GAP43 tag (Zemelman, Lee et al. 2002). Rat TRPV1 and rat TRPM8 were expressed as monomers; rat P2X2 subunits were linked into covalent trimers via tandem repeats of the tripeptide -Ser-Gly-Gly-.
Hippocampal neurons, obtained from E19 rats and grown in dissociated cultures, were exposed to 4.2 μg cm^−2 of calcium phosphate-precipitated plasmid DNA as described in Example 1 (pH 7.08) for 20 min to allow plasmid uptake. Transfections were performed on day 8 after plating; immunocytochemical analyses and electrophysiological recordings on days 6-10 after transfection. […]
(§2) Transfected neurons in cultures and infected neurons in brain slices were identified by GAP43-EGFP fluorescence and recorded in the whole-cell patch-clamp configuration. […] Membrane potentials and transmembrane currents were recorded with an Axoclamp-2B amplifier (Axon Instruments) in bridge and continuous single-electrode voltage-clamp mode, respectively, and digitized at 5 kHz without filtering (Digidata 1200, Axon Instruments). […]

TRPV1 = target: T1, TRPV1 (Rattus norvegicus, UniProt O35433); assay type: cell-based
T1 construct: expressed in transfected cells; host or cells: dissociated hippocampal neurons from E19 rats, calcium phosphate transfection of pCI-fluor plasmid
T1 sequence (O35433 whole entry): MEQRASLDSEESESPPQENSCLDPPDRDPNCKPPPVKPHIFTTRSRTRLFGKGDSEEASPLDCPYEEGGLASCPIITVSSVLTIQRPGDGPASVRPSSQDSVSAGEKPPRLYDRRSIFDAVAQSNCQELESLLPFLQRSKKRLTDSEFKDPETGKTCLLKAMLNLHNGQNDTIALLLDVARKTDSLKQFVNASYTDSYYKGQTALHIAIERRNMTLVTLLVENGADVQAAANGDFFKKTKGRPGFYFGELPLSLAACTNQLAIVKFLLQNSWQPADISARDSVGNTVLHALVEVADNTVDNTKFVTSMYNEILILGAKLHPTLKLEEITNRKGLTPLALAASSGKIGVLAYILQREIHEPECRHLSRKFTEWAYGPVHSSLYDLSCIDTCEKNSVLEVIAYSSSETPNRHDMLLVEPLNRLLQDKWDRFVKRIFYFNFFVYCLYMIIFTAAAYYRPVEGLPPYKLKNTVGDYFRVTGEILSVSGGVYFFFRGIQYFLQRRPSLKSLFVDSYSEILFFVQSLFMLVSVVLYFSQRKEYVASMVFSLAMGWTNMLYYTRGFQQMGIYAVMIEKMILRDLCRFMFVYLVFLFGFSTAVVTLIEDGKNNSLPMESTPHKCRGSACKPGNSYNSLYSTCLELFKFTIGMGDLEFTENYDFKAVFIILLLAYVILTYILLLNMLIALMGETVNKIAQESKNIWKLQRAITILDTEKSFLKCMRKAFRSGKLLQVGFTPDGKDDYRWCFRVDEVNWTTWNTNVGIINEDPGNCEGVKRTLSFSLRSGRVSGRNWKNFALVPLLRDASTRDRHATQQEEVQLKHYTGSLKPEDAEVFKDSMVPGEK

P2X2 = assay: Photostimulation of P2X2-expressing neurons with caged agonist; assay type: cell-based, rat
Chain of P2X2 (P49653 whole entry): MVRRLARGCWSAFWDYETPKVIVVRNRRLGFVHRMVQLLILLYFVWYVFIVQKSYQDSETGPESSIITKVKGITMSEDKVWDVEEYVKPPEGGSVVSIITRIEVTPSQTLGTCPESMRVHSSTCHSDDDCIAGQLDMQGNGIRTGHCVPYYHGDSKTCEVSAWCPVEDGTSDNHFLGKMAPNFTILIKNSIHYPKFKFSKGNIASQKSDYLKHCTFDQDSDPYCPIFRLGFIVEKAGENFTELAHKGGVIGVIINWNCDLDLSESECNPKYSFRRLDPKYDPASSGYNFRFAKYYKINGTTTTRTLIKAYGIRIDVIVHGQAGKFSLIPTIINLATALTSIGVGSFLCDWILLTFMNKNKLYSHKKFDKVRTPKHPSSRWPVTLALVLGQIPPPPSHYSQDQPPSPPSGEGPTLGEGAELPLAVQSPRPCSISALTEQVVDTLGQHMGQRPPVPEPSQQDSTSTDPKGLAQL

rat TRPM8 = target: T2, rat TRPM8 (Rattus norvegicus, UniProt Q8R455); assay: Pharmacological stimulation of transfected hippocampal neurons, whole-cell patch clamp (TRPM8); assay type: cell-based
T2 construct: expressed in transfected cells; host or cells: dissociated hippocampal neurons from E19 rats, calcium phosphate transfection of pCI-fluor plasmid
T2 sequence (Q8R455 whole entry): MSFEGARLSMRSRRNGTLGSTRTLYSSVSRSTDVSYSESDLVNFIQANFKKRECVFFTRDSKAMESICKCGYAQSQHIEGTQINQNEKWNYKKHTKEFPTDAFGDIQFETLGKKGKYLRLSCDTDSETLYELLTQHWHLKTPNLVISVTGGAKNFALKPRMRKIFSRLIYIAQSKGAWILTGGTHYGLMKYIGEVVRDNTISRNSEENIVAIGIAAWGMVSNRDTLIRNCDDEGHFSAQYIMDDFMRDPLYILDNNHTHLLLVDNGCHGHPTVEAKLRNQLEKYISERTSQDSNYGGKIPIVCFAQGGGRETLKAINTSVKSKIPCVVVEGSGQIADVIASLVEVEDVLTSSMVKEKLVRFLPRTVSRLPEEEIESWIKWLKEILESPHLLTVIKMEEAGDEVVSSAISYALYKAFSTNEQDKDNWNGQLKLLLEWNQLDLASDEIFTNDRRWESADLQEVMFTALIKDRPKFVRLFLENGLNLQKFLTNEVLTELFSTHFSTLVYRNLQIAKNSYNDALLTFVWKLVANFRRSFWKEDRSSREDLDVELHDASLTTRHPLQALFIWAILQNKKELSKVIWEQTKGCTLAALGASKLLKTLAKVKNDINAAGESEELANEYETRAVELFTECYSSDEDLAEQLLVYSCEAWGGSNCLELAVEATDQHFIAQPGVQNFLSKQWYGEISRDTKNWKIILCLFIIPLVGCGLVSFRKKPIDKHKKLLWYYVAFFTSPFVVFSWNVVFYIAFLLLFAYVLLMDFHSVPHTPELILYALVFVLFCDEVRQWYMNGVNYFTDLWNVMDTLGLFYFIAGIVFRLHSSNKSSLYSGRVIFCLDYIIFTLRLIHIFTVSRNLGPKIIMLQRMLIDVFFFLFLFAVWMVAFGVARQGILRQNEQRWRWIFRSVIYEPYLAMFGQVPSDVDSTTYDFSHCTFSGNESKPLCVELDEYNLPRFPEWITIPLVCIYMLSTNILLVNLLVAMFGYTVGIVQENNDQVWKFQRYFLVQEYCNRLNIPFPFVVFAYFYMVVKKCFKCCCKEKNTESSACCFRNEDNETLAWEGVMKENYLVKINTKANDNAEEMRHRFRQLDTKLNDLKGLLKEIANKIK
Protocol: as §1, with “-Ser-Gly-Gly-. […]” for “-Ser-Gly-Gly-.”
as §2
(§3) To determine dose-response relationships, the peak amplitudes as well as the integrated charges carried by depolarizing currents at different agonist concentrations were measured under whole-cell voltage clamp, at a constant holding potential of −65 mV.

[2] = target: T3, TRPV1 expressed ectopically in nociceptor neurons of C. elegans (Rattus norvegicus, UniProt O35433); conditions: wild-type animals lack the behavior; cited from earlier work
T3 construct: host or cells: transgenic C. elegans nociceptor neurons
T3 sequence (O35433 whole entry): as the sequence (O35433 whole entry) above

rat TRPV1 = target: T4, rat TRPV1 (Rattus norvegicus, UniProt O35433); assay: Pharmacological stimulation of transfected hippocampal neurons, whole-cell patch clamp (TRPV1); assay type: cell-based
T4 construct: expressed in transfected cells; host or cells: dissociated hippocampal neurons from E19 rats, calcium phosphate transfection of pCI-fluor plasmid
T4 sequence (O35433 whole entry): as above
Protocol: as §1, with “-Ser-Gly-Gly-. […]” for “-Ser-Gly-Gly-.”
as §2, §3

[3] = 1 mM DMNPE-ATP, 1-s light pulse, mean±s.d., n=16

Nc1ncnc2c1ncn2[C@@H]1O[C@H](COP(=O)(O)OP(=O)(O)OP(=O)(O)O)[C@@H](O)[C@H]1O [ATP]
stimulation of hippocampal neurons lacking the cognate exogenous receptor [1]: None of the three agonists, including ATP, was able to stimulate | response of membrane potential to a bolus of agonist (rat P2X2): depolarization, spiking, and repolarization

COc1cc(COC(=O)Oc2ccc(CNC(=O)CCCC/C=C/C(C)C)cc2OC)c([N+](=O)[O-])cc1OC [DMNB-capsaicin]
action potential frequency after light pulse (TRPV1): 15-40 Hz | biological activity due to chemical or enzymatic decomposition of the caged compound (TRPV1): No trace of biological activity | duration of window of activity (TRPV1): 2,651±383 ms | lag of onset of activity behind optical stimulus (TRPV1): 5,035±2,061 ms | membrane potentials and transmembrane conductances in presence of caged ligand without light (TRPV1): unaffected | response on repeated photostimulation of the same neuron (TRPV1): did not attenuate

P3-(1-(4,5-dimethoxy-2-nitrophenyl)ethyl) (DMNPE) ester of ATP [DMNPE-ATP]
duration of window of activity (P2X2; [3]): 2,456±1,273 ms | lag period between optical stimulus and window of activity (P2X2; [3]): 1,136±96 ms | membrane potentials and transmembrane conductances in presence of caged ligand without light (P2X2; 1 mM DMNPE-ATP, whole-cell current- or voltage-clamp): unaffected | biological activity due to chemical or enzymatic decomposition of the caged compound (P2X2; recordings lasting for >30 min, 1 mM): No trace of biological activity

CC(C)[C@@H]1CC[C@@H](C)C[C@H]1O [menthol, [1R,2S,5R]-5-methyl-2-[1-methylethyl]cyclo-hexanol]
stimulation of hippocampal neurons lacking the cognate exogenous receptor [1]: None of the three agonists, including ATP, was able to stimulate | response of membrane potential to a bolus of agonist (rat TRPM8; 100 μM menthol, 1-ml bolus, whole-cell current clamp, 50 μM AP-5 plus 10 μM CNQX): depolarization, spiking, and repolarization | EC50 (rat TRPM8; whole-cell voltage clamp, holding potential −65 mV, results not shown, read-out: half-maximal response): 150 µM

COc1cc(CNC(=O)CCCC/C=C/C(C)C)ccc1O [capsaicin]
behavior elicited in C. elegans [2]: avoidance behaviors | response of membrane potential to a bolus of agonist (rat TRPV1; 50 nM capsaicin, 1-ml bolus, whole-cell current clamp, 50 μM AP-5 plus 10 μM CNQX): depolarization, spiking, and repolarization | peak spike rate (firing frequency) (rat TRPV1; current clamp, sliding 200-ms windows, increasing agonist concentration, 382 agonist applications to 60 neurons): 40 Hz | stimulation of hippocampal neurons lacking the cognate exogenous receptor [1]: None of the three agonists, including ATP, was able to stimulate
